Results published in patent publication US8716307B2, “Combination antineoplastic therapy” (The Trustees Of The University of Pennsylvania, priority 2009, dated 2014).

Key:
Format in all cases: cell-based
[1] = test system: LN229 GFP-LC3 cells; assay: Electron microscopy of autophagic vesicles; settings: FIG. 3
Description: Cells were postfixed with 2% osmium tetroxide followed by an increasing gradient dehydration step using ethanol and propylene oxide.

[2] = test system: LN229 GFP-LC3 cells; assay: Fluorescence microscopy of GFP-LC3 puncta (autophagosome accumulation); settings: increasing doses; 48 hours of treatment; FIG. 2
Description: Punctate flouresence indicates the accumulation of LC3-positive autophagosomes.
Fluorescence Microscopy: Cells were grown in sterile glass coverslips and treated in full medium as indicated above. After 48 hours of treatment cells were fixed with 4% paraformaldehyde and imaged using a Nikon upright fluorescent microscope. Images were captured at 100× and representative images were reported.

[3] = test system: LN229 cells expressing GFP-LC3; assay: Cell counting of LN229 GFP-LC3 cells (Coulter Z2 particle analyzer, confirmed by trypan blue exclusion); settings: 5 nM rapamycin and/or 5 μM chloroquine, FIG. 1
Description: Cell lines, transfection, and cell counting: LN229 cells were grown in DMEM supplemented with 10% heat-inactivated fetal bovine serum (Gemini Biosciences, Woodland, Calif.), 10 units/ml penicillin/streptomycin, and 2 mM L-glutamine (Invitrogen Corporation). LN229 cells were transfected with lipofectamine 2000 (Invitrogen) according to manufacturer protocol. Stable transfectants were selected with neomycin (Gibco), and high fluorescence clones of LN229 GFP-LC3 were selected by limiting dilution. For all in vitro experiments media+supplements and drugs treatments were changed daily. Cell number was assessed by using a Coulter Z2 particle analyzer and confirmed by trypan blue exclusion.

SMILES	autophagosomes in electron micrographs [1]	accumulation of LC3-positive autophagosomes (punctate fluorescence) [2]	cell number [3]
CO[C@H]1C[C@@H]2CC[C@@H](C)[C@@](O)(O2)C(=O)C(=O)N2CCCC[C@H]2C(=O)O[C@H]([C@H](C)C[C@@H]2CC[C@@H](O)[C@H](OC)C2)CC(=O)[C@H](C)/C=C(\C)[C@@H](O)[C@@H](OC)C(=O)[C@H](C)C[C@H](C)/C=C/C=C/C=C/1C [rapamycin]	autophagosomes are observed	accumulated LC3-positive autophagosomes	decrease in cell number
CCN(CC)CCCC(C)Nc1ccnc2cc(Cl)ccc12 (centres unmarked) [chloroquine]		accumulated LC3-positive autophagosomes	decrease in cell number
